From patent US20260070929A1, “METHODS AND COMPOSITIONS FOR MODULATING KRAS(G12D)” (Ranok Therapeutics (Hangzhou) Co. LTD., priority 2022, published 2026)

Columns and labels:
[1] = system: AGS gastric carcinoma cells [heterozygous G12D]; experiment: Cancer cell line proliferation (CellTiter-Glo), AGS; assay type: cell-based; settings: Homo sapiens, 72 hr treatment, read-out: AGS CTG (EC50)
In short: (§1)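 A 72 hr proliferation format is used: cells at 4,000/well, pre-grown 72 hr, then treated at 37° C./5% CO2 with 0.5% DMSO final. CellTiter-Glo measures viable cells, from which EC50 is calculated.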

KRAS(G12D)/SOS1 = target: T1, KRAS(G12D)/SOS1 (Homo sapiens, UniProt P01116, G12D); experiment: KRAS(G12D)/SOS1 homogeneous time-resolved fluorescence (HTRF) assay; assay type: binding; settings: absence of GTP; 4° C., 3 hr
T1 construct: purchased Cisbio 63ADK000CB17PEH
In short: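 HTRF kit assay of compound-blocked KRAS(G12D)–SOS1 interaction, run without GTP. Compounds were tested as 3-fold dilutions from 20 µM to 1.02 nM and incubated with the reaction components for 3 hr at 4 °C, sealed. IC50 was taken as the concentration giving 50% of maximal inhibition.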

[2] = system: SW1990 pancreatic adenocarcinoma cells [homozygous G12D]; experiment: Cancer cell line proliferation (CellTiter-Glo), SW1990; assay type: cell-based; settings: Homo sapiens, 72 hr treatment, read-out: SW1990 CTG (EC50)
Description: The following cancer cell lines were employed: AGS gastric carcinoma [heterozygous G12D](ATCC, CRL-1739); A-427 lung carcinoma [heterozygous G12D](ATCC, HTB-53); ASPC1 pancreatic adenocarcinoma [homozygous G12D](ATCC, CRL-1682) and SW1990 pancreatic adenocarcinoma [homozygous G12D](ATCC CRL-2172). Cell lines were cultured essentially according to ATCC recommendations.
AGS, A-427, ASPC1, SW1990, and GP2D cells were plated in 96-well tissue culture plates at 4,000 cells/well and incubated at 37° C./5% CO2 for 72 hr in 100 μl of media. 3-fold serial dilutions of each test compound were prepared ranging from 20 μM to 1.02 nM. Each cell line was then treated with test compounds at various concentrations with a final concentration of 0.5% DMSO/well, and then incubated at 37° C./5% CO2 for 72 hr. 100 µl of CellTiter-Glo® Reagent (Promega Corporation, Madison, WI) was added to each well and processed according manufacturer's protocol. Results were analyzed and EC50 values were calculated in GraphPad 7 software.

[3] = system: ASPC1 pancreatic adenocarcinoma cells [homozygous G12D]; experiment: Cancer cell line proliferation (CellTiter-Glo), ASPC1; assay type: cell-based; settings: Homo sapiens, ASPC1, 72 h, 72 hr treatment, read-out: ASPC-1 CTG (EC50)
In short: as §1

T1 sequence (P01116 1-188 isoform P01116-2 G12D): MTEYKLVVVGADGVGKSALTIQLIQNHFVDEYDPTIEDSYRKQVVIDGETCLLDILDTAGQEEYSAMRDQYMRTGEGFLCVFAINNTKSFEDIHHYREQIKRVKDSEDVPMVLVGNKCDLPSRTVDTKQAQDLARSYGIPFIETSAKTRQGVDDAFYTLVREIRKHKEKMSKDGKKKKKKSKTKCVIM

Compound: C#Cc1c(F)ccc2cc(O)cc(-c3nc(OC)c4c(N5CC6CCC(C5)N6)nc(OCC5(CN6CCC(C7CCN(Cc8ccc9c(c8)CN(C(=O)c8cc(C(C)C)c(O)cc8O)C9)CC7)CC6)CC5)nc4c3F)c12 [Compound 186]
- EC50 [1]: < 100 nM
- IC50 (KRAS(G12D)/SOS1): < 100 nM
- EC50 [2]: < 100 nM

Compound: C#Cc1c(F)ccc2cc(O)cc(-c3ncc4c(N5CC6CCC(C5)N6)nc(OCC5(CN6CCC7(CCN(Cc8ccc(-n9c(C(=O)NC(C)C(F)(F)F)nnc9-c9cc(C(C)C)c(O)cc9O)cc8)CC7)CC6)CC5)nc4c3F)c12 (centres unmarked) [Compound 183]
- EC50 [1]: < 100 nM
- IC50 (KRAS(G12D)/SOS1): < 100 nM
- EC50 [2]: < 100 nM

Compound: C#Cc1c(F)ccc2cc(O)cc(-c3ncc4c(N5CC6CCC(C5)N6)nc(OCC5CN(C6CN(Cc7ccc8c(c7)CN(C(=O)c7cc(C(C)C)c(O)cc7O)C8)C6)C5)nc4c3F)c12 [Compound 193]
- EC50 [1]: 100 to 1000 nM
- IC50 (KRAS(G12D)/SOS1): < 100 nM
- EC50 [2]: 100 to 1000 nM

Compound: C#Cc1c(F)ccc2cc(O)cc(-c3ncc4c(N5CC6CCC(C5)N6)nc(OCc5ccc6c(c5)CN(C(=O)c5cc(C(C)C)c(O)cc5O)C6)nc4c3F)c12 [Compound 173]
- EC50 [1]: 100 to 1000 nM
- IC50 (KRAS(G12D)/SOS1): 100 to 1000 nM
- EC50 [2]: > 1000 nM

Compound: C#Cc1c(F)ccc2cc(O)cc(-c3nc(OC)c4c(N5CC6CCC(C5)N6)nc(OCC5(CN6CCN(CC7CCN(Cc8ccc(-n9c(C(=O)NCC)nnc9-c9cc(C(C)C)c(O)cc9O)cc8)CC7)CC6)CC5)nc4c3F)c12 [Compound 169]
- EC50 [1]: < 100 nM
- IC50 (KRAS(G12D)/SOS1): < 100 nM
- EC50 [2]: < 100 nM

Compound: C#Cc1c(F)ccc2cc(O)cc(-c3nc(OC)c4c(N5CC6CCC(C5)N6)nc(OCC5(CN6CCOC(CNCc7ccc8c(c7)CN(C(=O)c7cc(C(C)C)c(O)cc7O)C8)C6)CC5)nc4c3F)c12 (centres unmarked) [Compound 192]
- EC50 [1]: 100 to 1000 nM
- IC50 (KRAS(G12D)/SOS1): > 1000 nM
- EC50 [2]: 100 to 1000 nM

Compound: C#Cc1c(F)ccc2cc(O)cc(-c3ncc4c(N5CC6CCC(C5)N6)nc(OCC5(CN6CCN(CC7CN(Cc8ccc(-n9c(C(=O)NC(C)C(F)(F)F)nnc9-c9cc(C(C)C)c(O)cc9O)cc8)C7)CC6)CC5)nc4c3F)c12 (centres unmarked) [Compound 165]
- EC50 [1]: < 100 nM
- IC50 (KRAS(G12D)/SOS1): < 100 nM
- EC50 [3]: 100 to 1000 nM
- EC50 [2]: < 100 nM

Compound: C#Cc1c(F)ccc2cc(O)cc(-c3ncc4c(N5CC6CCC(C5)N6)nc(OCC5CN(Cc6ccc7c(c6)CN(C(=O)c6cc(C(C)C)c(O)cc6O)C7)C5)nc4c3F)c12 [Compound 172]
- EC50 [1]: 100 to 1000 nM
- IC50 (KRAS(G12D)/SOS1): < 100 nM
- EC50 [2]: 100 to 1000 nM

Compound: C#Cc1c(F)ccc2cc(O)cc(-c3ncc4c(N5CC6CCC(C5)N6)nc(OCC5(CN6CCN(C7CN(Cc8ccc9c(c8)CN(C(=O)c8cc(C(C)C)c(O)cc8O)C9)C7)CC6)CC5)nc4c3F)c12 [Compound 177]
- EC50 [1]: < 100 nM
- IC50 (KRAS(G12D)/SOS1): < 100 nM
- EC50 [2]: < 100 nM

Compound: C#Cc1c(F)ccc2cc(O)cc(-c3ncc4c(N5CC6CCC(C5)N6)nc(OCC5(CN6CCN(C7CN(Cc8ccc(-n9c(C(=O)NC(C)C(F)(F)F)nnc9-c9cc(C(C)C)c(O)cc9O)cc8)C7)CC6)CC5)nc4c3F)c12 (centres unmarked) [Compound 167]
- EC50 [1]: < 100 nM
- IC50 (KRAS(G12D)/SOS1): < 100 nM
- EC50 [2]: < 100 nM

Compound: C#Cc1c(F)ccc2cc(O)cc(-c3ncc4c(N5CC6CCC(C5)N6)nc(OCC5(CN6CCN(CC7CN(Cc8ccc9c(c8)CN(C(=O)c8cc(C(C)C)c(O)cc8O)C9)C7)CC6)CC5)nc4c3F)c12 [Compound 164]
- EC50 [1]: < 100 nM
- IC50 (KRAS(G12D)/SOS1): < 100 nM
- EC50 [3]: 100 to 1000 nM
- EC50 [2]: < 100 nM

Compound: C#Cc1c(F)ccc2cc(O)cc(-c3nc(OC)c4c(N5CC6CCC(C5)N6)nc(OCC5(CN6CCN(CC7CCN(Cc8ccc(-n9c(C(=O)NCC(F)(F)F)nnc9-c9cc(C(C)C)c(O)cc9O)cc8)CC7)CC6)CC5)nc4c3F)c12 [Compound 168]
- EC50 [1]: < 100 nM
- IC50 (KRAS(G12D)/SOS1): < 100 nM
- EC50 [2]: < 100 nM

Compound: C#Cc1c(F)ccc2cc(O)cc(-c3nc(OC)c4c(N5CC6CCC(C5)N6)nc(OCC5(CN6CCN(C7CCN(Cc8ccc(-n9c(C(=O)NC(C)C(F)(F)F)nnc9-c9cc(C(C)C)c(O)cc9O)cc8)CC7)CC6)CC5)nc4c3F)c12 (centres unmarked) [Compound 178]
- EC50 [1]: < 100 nM
- IC50 (KRAS(G12D)/SOS1): < 100 nM
- EC50 [2]: < 100 nM
